Our source for the TGI values is PubChem BioAssay (NCI).

Holding throughout (experiment): NCI anticancer screen, dose series, 48 h
Assay [1] concerns ACHN renal.
The subject of assay [2] is MDA-N.
Assay [3] has as its system NCI-H522 lung.
Assay [4] relates to NCI-H23 lung.
Assay [5] has as its system NCI-H226 lung.
In assay [6] the test system is SK-MEL-5 melanoma.
Assay [7] relates to M14 melanoma.
In assay [8] the test system is IGROV1 ovarian.
The subject of assay [9] is MDA-MB-231 breast.
Assay [10] deals with CAKI-1 renal.

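In this assay, cells in 96-well plates receive the compound at five concentrations for 48 hours. Endpoints are linearly interpolated between the surrounding concentrations. Definition used: TGI = concentration required for complete inhibition of growth.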 Where a SMILES comes first, the peptide text is derived from it. Peptide text beside a SMILES is read from it. [ ]: non-standard residue; d: D form. The star is where a group is joined. * marks the point of attachment. Phe(4-NO2) = N[CH](Cc1ccc([N+](=O)[O-])cc1)C(=O)O; Boc = CC(C)(C)OC(=O)*; OtBu = CC(C)(C)O* A value given as a limit tells only on which side of the number the result lay.

Take `c1csc(-c2ccc(-c3ccc(-c4cccs4)s3)s2)c1`: the TGI in assay [1], in assay [2], in [3], in [4], in [5] and in [6] was above 100 µM in each case. In addition, the TGI in assay [7], in [8], in assay [9] and in assay [10] was above 100 µM each time.

Consider `COc1cc2c(cc1OC)C1Cc3ccccc3CN1CCC2` (centres undefined), for which the TGI in assay [1], in assay [2], in assay [3], in [4], in assay [5] and in assay [6] was above 100 µM throughout. The TGI in [7], in [8], in [9] and in assay [10] was above 100 µM throughout.

On to `C=C1C(=O)O[C@H]2C(=O)[C@H](C)CCC[C@@](C)(O)/C=C\C[C@@]3(C)O[C@@H]3C[C@@H]12`, for which the TGI in assay [1] was 20.5 µM; in assay [2] it was 34.8 µM; in assay [3], 9.08 µM; in assay [4], 68.8 µM; in assay [5], above 100 µM; in [6], 29 µM. Besides, the TGI in assay [7] worked out at 24 µM; in assay [8], 41.6 µM; in [9] it was 43.6 µM; in [10] it was 27 µM.

Turning to `CSc1nc(Br)nc2c1ncn2C1CC(Oc2ccc(C)cc2)C(COc2ccc(C)cc2)O1` (centres undefined), the TGI in assay [1], in assay [2], in assay [3], in assay [4], in assay [5] and in assay [6] was above 100 µM each time. Further, the TGI in assay [7], in assay [8], in assay [9] and in assay [10] was above 100 µM in each case.

With `O=C1N2CCc3c([nH]c4ccccc34)C23CC2CCCC12S3` (centres undefined), the TGI in assay [1], in assay [2], in [3], in [4], in assay [5] and in [6] was above 50 µM each time. Also, the TGI in [7], in assay [8], in assay [9] and in assay [10] was above 50 µM each time.

As for `CC(C)CC1c2[nH]c3ccccc3c2C[C@H]2C(=O)NC(COC(C)(C)C)C(=O)N12` (some centres undefined), the TGI was determined as 88.4 µM in assay [1]; 51.8 µM in [2]; 35.4 µM in assay [3]; 91.3 µM in [4]; 93 µM in [5]; 47.4 µM in assay [6]. For the same compound, the TGI was determined as 46.7 µM in [7], 63.1 µM in [8], 38.8 µM in assay [9] and 79.5 µM in assay [10].

Regarding `COc1ccc([C@@]23CCC(=O)C[C@@H]2N(C)CC3)cc1OC`, the TGI in assay [1], in assay [2], in assay [3], in assay [4], in [5] and in [6] was above 100 µM throughout. Moreover, the TGI in [7], in assay [8], in [9] and in assay [10] was above 100 µM each time.

With `CSCCC(NC(=O)C(CC(C)C)NC(=O)CNC(=O)OC(C)(C)C)C(=O)N(C)C` (stereo not drawn) (Boc-Gly-Leu-Met-NMe2; configuration not given here), the TGI in assay [1], in assay [2], in assay [3], in assay [4], in assay [5] and in assay [6] was above 100 µM throughout. The TGI in assay [7], in assay [8], in [9] and in assay [10] was above 100 µM in each case.

On to `O=C(Nc1ccccc1)N1N=C(c2ccccc2)C1c1ccccc1` (centres undefined), for which the TGI in assay [1] is 65.8 µM; in assay [2], 70.7 µM; in assay [3] it was 37 µM; in [4], 72.1 µM; in [5], 37.3 µM; in [6], 54.7 µM. Further, the TGI in [7] was 60.4 µM; in assay [8], above 100 µM; in [9], above 100 µM; in assay [10], 95.3 µM.

Regarding `CCOC(=O)Cc1nc2c(=O)[nH]cnc2n1C1OC(COC(C)=O)C(OC(C)=O)C1OC(C)=O` (centres undefined), the TGI in assay [1], in [2], in assay [3], in [4], in [5] and in [6] was above 100 µM throughout. Besides, the TGI in assay [7], in assay [8], in [9] and in assay [10] was above 100 µM throughout.

On to `CN(Cc1nc2c(N)nc(N)nc2nc1N)c1ccc(C(=O)NC(CCC(=O)O)C(=O)O)cc1` (centres undefined), for which the TGI in [1], in [2], in assay [3], in [4], in [5] and in [6] was above 100 µM throughout. Moreover, the TGI in [7] is above 100 µM; in assay [8], above 100 µM; in [9] it was above 100 µM; in assay [10], above 88 µM.

As for `COC(=O)C(Cc1ccc([N+](=O)[O-])cc1)NC(=O)C(CC(=O)OC(C)(C)C)NC(=O)OC(C)(C)C` (centres undefined) (Boc-Asp(OtBu)-[Phe(4-NO2)]-OMe; configuration not given here), the TGI in [1], in assay [2], in [3], in [4], in assay [5] and in assay [6] was above 100 µM throughout. Further, the TGI was above 100 µM in assay [7], above 100 µM in assay [8], 68.4 µM in [9] and above 100 µM in assay [10].

For the compound `CC(=O)Oc1ccc2c(c1)c1c(OC(C)=O)c3ccccc3c(OC(C)=O)c1n2Cc1cccc(C)c1`, the TGI in [1] was above 100 µM; in [2], above 100 µM; in assay [3], 52.8 µM; in assay [4] it was above 100 µM; in [5], above 100 µM; in assay [7], above 100 µM. Further, the TGI in assay [8], in assay [9] and in assay [10] was above 100 µM throughout.
